{"source": "PubChem BioAssay (NCI)", "experiment_in_all_cases": "growth of human tumour cells (NCI), 48 h", "key": {"786-0 renal": {"tested_on": "786-0 renal"}, "A498 renal": {"tested_on": "A498 renal"}, "A549 NSCLC": {"tested_on": "A549 NSCLC"}, "ACHN renal": {"tested_on": "ACHN renal"}, "BT-549 breast": {"tested_on": "BT-549 breast"}, "CAKI-1 renal": {"tested_on": "CAKI-1 renal"}, "CCRF-CEM leukemia": {"tested_on": "CCRF-CEM leukemia"}, "COLO 205 colon": {"tested_on": "COLO 205 colon"}, "DU-145 prostate": {"tested_on": "DU-145 prostate"}, "HCT-116 colon": {"tested_on": "HCT-116 colon"}, "HCT-15 colon": {"tested_on": "HCT-15 colon"}, "HL-60(TB) leukemia": {"tested_on": "HL-60(TB) leukemia"}, "HOP-62 NSCLC": {"tested_on": "HOP-62 NSCLC"}, "HOP-92 NSCLC": {"tested_on": "HOP-92 NSCLC"}, "HS 578T breast": {"tested_on": "HS 578T breast"}, "HT29 colon": {"tested_on": "HT29 colon"}, "IGROV1 ovarian": {"tested_on": "IGROV1 ovarian"}, "K-562 leukemia": {"tested_on": "K-562 leukemia"}, "KM12 colon": {"tested_on": "KM12 colon"}, "LOX IMVI melanoma": {"tested_on": "LOX IMVI melanoma"}, "M14 melanoma": {"tested_on": "M14 melanoma"}, "MALME-3M melanoma": {"tested_on": "MALME-3M melanoma"}, "MCF7 breast": {"tested_on": "MCF7 breast"}, "MDA-MB-231 breast": {"tested_on": "MDA-MB-231 breast"}, "MDA-MB-435": {"tested_on": "MDA-MB-435"}, "MDA-N": {"tested_on": "MDA-N"}, "MOLT-4 leukemia": {"tested_on": "MOLT-4 leukemia"}, "NCI-H23 lung": {"tested_on": "NCI-H23 lung"}, "NCI-H460 lung": {"tested_on": "NCI-H460 lung"}, "NCI/ADR-RES ovarian": {"tested_on": "NCI/ADR-RES ovarian"}, "OVCAR-3 ovarian": {"tested_on": "OVCAR-3 ovarian"}, "OVCAR-4 ovarian": {"tested_on": "OVCAR-4 ovarian"}, "OVCAR-5 ovarian": {"tested_on": "OVCAR-5 ovarian"}, "PC-3 prostate": {"tested_on": "PC-3 prostate"}, "RPMI-8226 leukemia": {"tested_on": "RPMI-8226 leukemia"}, "RXF 393 renal": {"tested_on": "RXF 393 renal"}, "SF-268 CNS": {"tested_on": "SF-268 CNS"}, "SF-295 CNS": {"tested_on": "SF-295 CNS"}, "SF-539 CNS": {"tested_on": "SF-539 CNS"}, "SK-MEL-2 melanoma": {"tested_on": "SK-MEL-2 melanoma"}, "SK-MEL-28 melanoma": {"tested_on": "SK-MEL-28 melanoma"}, "SK-MEL-5 melanoma": {"tested_on": "SK-MEL-5 melanoma"}, "SK-OV-3 ovarian": {"tested_on": "SK-OV-3 ovarian"}, "SN12C renal": {"tested_on": "SN12C renal"}, "SNB-19 CNS": {"tested_on": "SNB-19 CNS"}, "SNB-75 CNS": {"tested_on": "SNB-75 CNS"}, "SR leukemia": {"tested_on": "SR leukemia"}, "SW-620 colon": {"tested_on": "SW-620 colon"}, "T-47D breast": {"tested_on": "T-47D breast"}, "TK-10 renal": {"tested_on": "TK-10 renal"}, "U251 CNS": {"tested_on": "U251 CNS"}, "UACC-257 melanoma": {"tested_on": "UACC-257 melanoma"}, "UACC-62 melanoma": {"tested_on": "UACC-62 melanoma"}, "UO-31 renal": {"tested_on": "UO-31 renal"}}, "note": "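Values below derive from 48-hour exposures of cells grown in 96-well plates, with endpoints linearly interpolated between the two concentrations bracketing the appropriate inhibition level. TGI: total growth inhibition.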"}
{"molecule": "Cc1c(N=Nc2ccc(Cl)cc2)c(-c2ccccc2)n(C2OC(CO)C(O)C(O)C2O)c(=S)c1C#N", "note": "(centres undefined)", "values": [{"measurement": "TGI", "setting": "786-0 renal", "result": 36.7, "unit": "µM"}, {"measurement": "TGI", "setting": "A498 renal", "result": 21.5, "unit": "µM"}, {"measurement": "TGI", "setting": "A549 NSCLC", "result": 35.3, "unit": "µM"}, {"measurement": "TGI", "setting": "ACHN renal", "result": 31.1, "unit": "µM"}, {"measurement": "TGI", "setting": "BT-549 breast", "result": 29.5, "unit": "µM"}, {"measurement": "TGI", "setting": "CAKI-1 renal", "result": 34, "unit": "µM"}, {"measurement": "TGI", "setting": "CCRF-CEM leukemia", "result": 87.5, "unit": "µM"}, {"measurement": "TGI", "setting": "COLO 205 colon", "result": 37.7, "unit": "µM"}, {"measurement": "TGI", "setting": "DU-145 prostate", "result": 39.4, "unit": "µM"}, {"measurement": "TGI", "setting": "HCT-116 colon", "result": 28.2, "unit": "µM"}, {"measurement": "TGI", "setting": "HCT-15 colon", "result": 33.9, "unit": "µM"}, {"measurement": "TGI", "setting": "HL-60(TB) leukemia", "result": "> 100", "unit": "µM"}, {"measurement": "TGI", "setting": "HOP-62 NSCLC", "result": 34.4, "unit": "µM"}, {"measurement": "TGI", "setting": "HOP-92 NSCLC", "result": 28.8, "unit": "µM"}, {"measurement": "TGI", "setting": "HS 578T breast", "result": 51.6, "unit": "µM"}, {"measurement": "TGI", "setting": "HT29 colon", "result": 33.7, "unit": "µM"}, {"measurement": "TGI", "setting": "IGROV1 ovarian", "result": 29.5, "unit": "µM"}, {"measurement": "TGI", "setting": "K-562 leukemia", "result": 41.3, "unit": "µM"}, {"measurement": "TGI", "setting": "KM12 colon", "result": 35.4, "unit": "µM"}, {"measurement": "TGI", "setting": "LOX IMVI melanoma", "result": 32.7, "unit": "µM"}, {"measurement": "TGI", "setting": "M14 melanoma", "result": 31.2, "unit": "µM"}, {"measurement": "TGI", "setting": "MALME-3M melanoma", "result": 46.4, "unit": "µM"}, {"measurement": "TGI", "setting": "MCF7 breast", "result": 34.5, "unit": "µM"}, {"measurement": "TGI", "setting": "MDA-MB-231 breast", "result": 39.2, "unit": "µM"}, {"measurement": "TGI", "setting": "MDA-MB-435", "result": 22.2, "unit": "µM"}, {"measurement": "TGI", "setting": "MDA-N", "result": 35.9, "unit": "µM"}, {"measurement": "TGI", "setting": "MOLT-4 leukemia", "result": 33.2, "unit": "µM"}, {"measurement": "TGI", "setting": "NCI-H23 lung", "result": 22.5, "unit": "µM"}, {"measurement": "TGI", "setting": "NCI-H460 lung", "result": 51.7, "unit": "µM"}, {"measurement": "TGI", "setting": "NCI/ADR-RES ovarian", "result": 32.8, "unit": "µM"}, {"measurement": "TGI", "setting": "OVCAR-3 ovarian", "result": 32.5, "unit": "µM"}, {"measurement": "TGI", "setting": "OVCAR-4 ovarian", "result": 36, "unit": "µM"}, {"measurement": "TGI", "setting": "OVCAR-5 ovarian", "result": 33.7, "unit": "µM"}, {"measurement": "TGI", "setting": "PC-3 prostate", "result": 22.4, "unit": "µM"}, {"measurement": "TGI", "setting": "RPMI-8226 leukemia", "result": "> 100", "unit": "µM"}, {"measurement": "TGI", "setting": "RXF 393 renal", "result": 28.7, "unit": "µM"}, {"measurement": "TGI", "setting": "SF-268 CNS", "result": 44.8, "unit": "µM"}, {"measurement": "TGI", "setting": "SF-295 CNS", "result": 73.9, "unit": "µM"}, {"measurement": "TGI", "setting": "SF-539 CNS", "result": 41, "unit": "µM"}, {"measurement": "TGI", "setting": "SK-MEL-2 melanoma", "result": 37.5, "unit": "µM"}, {"measurement": "TGI", "setting": "SK-MEL-28 melanoma", "result": 28.7, "unit": "µM"}, {"measurement": "TGI", "setting": "SK-MEL-5 melanoma", "result": 25.8, "unit": "µM"}, {"measurement": "TGI", "setting": "SK-OV-3 ovarian", "result": 30.6, "unit": "µM"}, {"measurement": "TGI", "setting": "SN12C renal", "result": 32.5, "unit": "µM"}, {"measurement": "TGI", "setting": "SNB-19 CNS", "result": 25.2, "unit": "µM"}, {"measurement": "TGI", "setting": "SNB-75 CNS", "result": 32.7, "unit": "µM"}, {"measurement": "TGI", "setting": "SR leukemia", "result": "> 100", "unit": "µM"}, {"measurement": "TGI", "setting": "SW-620 colon", "result": 32.9, "unit": "µM"}, {"measurement": "TGI", "setting": "T-47D breast", "result": 44.2, "unit": "µM"}, {"measurement": "TGI", "setting": "TK-10 renal", "result": 44.4, "unit": "µM"}, {"measurement": "TGI", "setting": "U251 CNS", "result": 25.3, "unit": "µM"}, {"measurement": "TGI", "setting": "UACC-257 melanoma", "result": 54, "unit": "µM"}, {"measurement": "TGI", "setting": "UACC-62 melanoma", "result": 26.1, "unit": "µM"}, {"measurement": "TGI", "setting": "UO-31 renal", "result": 34.2, "unit": "µM"}]}
